Measured values from publication PMC13371181, “A paracrine-to-autocrine shunt of GREM1 fuels colorectal cancer metastasis via ACVR1C” (Molecular Cancer, 2026).
Entries after “also recorded” stand apart in the source; their conditions may differ.

What was measured:
GREM1 promoter = assay: ChIP–qPCR, SMAD2/3/4 binding to GREM1 promoter; type: cell-based, human; conditions: SW480 cells, SB505124 10 µM, 24 h, n = 3 independent experiments
Method: SW480 cells were starved in DMEM with 1% FCS overnight before treatment with vehicle, 10 µM SB505124 for 24 h. Cells were fixed in 1% paraformaldehyde for 10 min at RT for DNA-protein cross-linking, followed by quenching with glycine. Cross-linking chromatin was prepared using the SimpleChIP® Enzymatic Chromatin IP Kit (CST, 9002) according to the manufacturer’s instructions. For immunoprecipitation, 10 µg chromatin was incubated with 10 µL anti-histone H3 rabbit IgG (CST, 14269, positive control), 2 µL normal Rabbit IgG (CST, 2729) or 5 µL anti-SMAD2/3 rabbit IgG (CST, 8685) at 4 °C overnight. 2% chromatin prior to immunoprecipitation was used as input. Chromatin-protein-antibody complex was captured by protein G magnetic beads, and chromatin was released by reversal of cross-links and purified using the SimpleChIP® Enzymatic Chromatin IP Kit (CST, 9002) according to the manufacturer’s instructions. DNA was quantified by qPCR with primers targeting predicted SMAD2/3/4 binding regions on GREM1 or SNAI1 promoters. DNA levels were normalized to the input, and the fold-change of enrichment was calculated over the control. ChIP–qPCR primers are listed in Supplementary Table 2.

HCT116-luc cells = assay: Cecum-to-liver metastasis model, GREM1-CM-pre-treated HCT116-luc in NOG mice; type: in vivo, human cells in NOG mice; conditions: cecum wall, SB505124 10 mg/kg i.p. every other day, IVIS, n = 5 mice per group
Text: To determine the role of the ACVR1C–SMAD2/3 axis in GREM1-mediated EMT in vivo, we harnessed HCT116 cells carrying a luciferase reporter (HCT116-luc), which stably express either shACVR1C or a scramble shRNA. These cells were pretreated with GREM1-CM prior to their subcutaneous transplantation into nude mice. […] These findings were further corroborated by IF staining of EMT markers, including E-CAD and SNAIL (Figs. 5E–G). As a complementary pharmacological approach, we inhibited ACVR1C-mediated SMAD2/3 activation using SB505124. […] Importantly, to investigate the impact of the ACVR1C–SMAD2/3 axis on metastasis, we injected GREM1-CM-pre-treated HCT116-luc cells, stably expressing either shACVR1C or scramble shRNA, into the tail vein of nude mice. […]
Figure S8. […] E-G, Representative IF images (E) and quantification (F, G) of E-CAD (green), SNAIL (red), and DAPI (blue) staining in tumors from the indicated groups. […] H, I, Representative IVIS images (H) and quantification (I) of NOG mice that were injected with HCT116-luc cells in the cecum wall and treated with either SB505124 or vehicle via abdominal injection. Liver metastases were imaged and quantified using the IVIS Lumina Imaging System (n = 5 mice per group). […] P values were calculated using one-way ANOVA with Bonferroni multiple-comparison test (B–D, F, and G) or two-tailed Student’s t-test (I).

Question: With `Cc1cccc(-c2[nH]c(C(C)(C)C)nc2-c2ccc3c(c2)OCO3)n1` [SB505124] as the compound, how does the “SMAD2/3/4 binding to GREM1 promoter −733 and −612 sites” value (GREM1 promoter) read?
Answer: The value was “significantly reduced this binding”.

Question: What about the liver metastasis (HCT116-luc cells) of the same compound?
Answer: The liver metastasis was “significant reduction in liver metastasis; also recorded: markedly attenuated the metastatic phenotype induced by GREM1-CM”.
